Results as given in publication PMC4982440, “PDK1-SGK1 Signaling Sustains AKT-Independent mTORC1 Activation and Confers Resistance to PI3Kα Inhibition” (Cancer Cell, 2016).
pIC50: −log10 of the molar value.

Assays:
Format in all cases: biochemical
[1] = target: T1, SGK3 (Homo sapiens, UniProt Q96BR1); experiment: in vitro kinase assay
T1 sequence (Q96BR1 1-496): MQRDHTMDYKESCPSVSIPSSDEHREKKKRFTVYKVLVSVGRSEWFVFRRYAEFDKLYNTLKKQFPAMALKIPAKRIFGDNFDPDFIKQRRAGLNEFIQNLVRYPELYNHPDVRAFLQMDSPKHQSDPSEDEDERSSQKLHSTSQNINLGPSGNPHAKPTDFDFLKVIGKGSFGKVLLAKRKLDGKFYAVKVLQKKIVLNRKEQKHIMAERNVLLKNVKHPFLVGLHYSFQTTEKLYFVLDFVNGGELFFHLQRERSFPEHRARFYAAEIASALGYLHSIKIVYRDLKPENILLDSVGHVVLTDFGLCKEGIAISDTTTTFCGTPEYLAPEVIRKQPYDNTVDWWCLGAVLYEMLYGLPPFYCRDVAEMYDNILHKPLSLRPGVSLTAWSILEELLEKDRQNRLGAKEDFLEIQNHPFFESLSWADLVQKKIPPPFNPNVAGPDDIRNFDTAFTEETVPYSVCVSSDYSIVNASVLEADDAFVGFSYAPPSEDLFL

[2] = target: T2, SGK2 (Homo sapiens, UniProt Q9HBY8); experiment: in vitro kinase assay
T2 sequence (Q9HBY8 1-367): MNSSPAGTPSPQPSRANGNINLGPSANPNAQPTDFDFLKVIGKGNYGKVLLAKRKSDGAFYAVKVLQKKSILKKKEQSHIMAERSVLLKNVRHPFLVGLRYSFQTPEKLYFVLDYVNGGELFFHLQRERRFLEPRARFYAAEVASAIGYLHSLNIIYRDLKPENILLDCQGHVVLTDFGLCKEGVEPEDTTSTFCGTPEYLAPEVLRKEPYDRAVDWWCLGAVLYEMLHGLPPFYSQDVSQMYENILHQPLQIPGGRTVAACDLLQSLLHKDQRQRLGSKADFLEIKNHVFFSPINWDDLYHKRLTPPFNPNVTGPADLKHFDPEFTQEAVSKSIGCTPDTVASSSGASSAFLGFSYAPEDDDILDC

[3] = target: T3, S6K (Homo sapiens, UniProt P23443); experiment: recombinant in vitro kinase assay
T3 construct: gene RPS6KB1; recombinant S6K
T3 sequence (P23443 whole entry): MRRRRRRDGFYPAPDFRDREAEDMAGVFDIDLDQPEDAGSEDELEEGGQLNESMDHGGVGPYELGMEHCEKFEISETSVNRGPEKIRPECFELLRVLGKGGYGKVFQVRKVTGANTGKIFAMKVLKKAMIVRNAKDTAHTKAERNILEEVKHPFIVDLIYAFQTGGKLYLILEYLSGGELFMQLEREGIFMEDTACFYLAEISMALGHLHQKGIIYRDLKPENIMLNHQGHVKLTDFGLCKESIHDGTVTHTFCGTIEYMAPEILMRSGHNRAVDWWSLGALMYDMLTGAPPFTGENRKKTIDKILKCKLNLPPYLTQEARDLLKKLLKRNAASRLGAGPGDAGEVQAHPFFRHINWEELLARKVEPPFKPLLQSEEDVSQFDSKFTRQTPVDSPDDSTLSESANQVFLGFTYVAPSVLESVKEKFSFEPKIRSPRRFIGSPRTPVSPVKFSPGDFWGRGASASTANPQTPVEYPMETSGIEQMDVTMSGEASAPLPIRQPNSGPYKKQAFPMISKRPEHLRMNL

Nc1n[nH]c2nc(-c3ccc(NS(=O)(=O)c4cccc(Cl)c4Cl)cc3)cnc12 [SGK1-inh]
pIC50 [1]: 6.23
pIC50 [2]: 8.55
pIC50 [3]: 7.48
